Among the data in PubChem BioAssay (NCI) are GI50 and TGI values, retold here.

Values joined by “and” are separate entries in the source; they are usually repeats but may differ in a detail not shown here. Equal values may be shown once.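 Grown in 96-well plates, cells were treated for 48 hours with each compound at five concentrations. Insufficient inhibition: endpoint recorded as highest concentration tested. At the GI50, growth is halved. At the TGI there is no net growth.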 Some results are limits rather than exact numbers.

Some test systems named below: OVCAR-4 ovarian; SK-MEL-5 melanoma; IGROV1 ovarian; K-562 leukemia; ACHN renal; HCT-15 colon; CAKI-1 renal; SNB-19 CNS; KM12 colon; CCRF-CEM leukemia.
Holding throughout (assay): NCI tumour cell line growth inhibition, 48 h

Turning to `Cn1cc(-c2ccc3c(c2)ncn3-c2ccc(CC(=O)Nc3cc(C(C)(C)C)on3)cc2)cn1`, the GI50 in the assay with OVCAR-4 ovarian is 0.501 µM; with SK-MEL-5 melanoma it was 2.5 µM; in the assay on IGROV1 ovarian, 0.235 µM; with K-562 leukemia, 0.0284 µM; in the assay on ACHN renal it was 0.405 µM; in the assay on HCT-15 colon, 1.19 µM. Further, the GI50 is 0.782 µM in the assay with CAKI-1 renal, 3.5 µM with SNB-19 CNS and 3.23 µM in the assay on CCRF-CEM leukemia. The TGI with OVCAR-4 ovarian is 19.1 µM; in the assay with SK-MEL-5 melanoma, 15.5 µM; in the assay with IGROV1 ovarian it was 1.31 µM; in the assay with K-562 leukemia it was greater than 100 µM; with ACHN renal, 10.9 µM; in the assay with HCT-15 colon, greater than 40.9 µM. Further, the TGI in the assay with CAKI-1 renal was 2.43 µM; with SNB-19 CNS, greater than 100 µM; in the assay on KM12 colon, 14.3 µM; in the assay on CCRF-CEM leukemia it was greater than 100 µM.

Turning to `COc1ccc2c(c1)C(=O)/C(=C/c1ccc(OCC(=O)c3ccc(Cl)cc3)cc1)O2`, the GI50 in the assay on OVCAR-4 ovarian was 13.3 µM; in the assay on SK-MEL-5 melanoma, 17.2 µM; with IGROV1 ovarian, 11.1 µM; in the assay with K-562 leukemia, 1.77 µM; in the assay on ACHN renal, 15.9 µM; in the assay on HCT-15 colon, 12.6 µM. Besides, the GI50 in the assay on CAKI-1 renal was 16.4 µM; in the assay on SNB-19 CNS, 48.2 µM; with KM12 colon it was 15.6 µM; in the assay with CCRF-CEM leukemia, 1.92 µM. Further, the TGI in the assay with OVCAR-4 ovarian turned out to be 36.7 µM; in the assay on SK-MEL-5 melanoma, 59.3 µM; in the assay on IGROV1 ovarian it was 35.3 µM; with K-562 leukemia, 4.64 µM; in the assay with ACHN renal, 30.5 µM; in the assay on HCT-15 colon it was 26.3 µM. In addition, the TGI in the assay on CAKI-1 renal is 90.1 µM; in the assay with SNB-19 CNS, greater than 100 µM; in the assay on KM12 colon it was 30.1 µM; with CCRF-CEM leukemia, 4.75 µM.

As for `CCN(CC)c1ccc(/C=C/C2=[N+](C)c3ccccc3C2(C)C)cc1`, the GI50 was 0.292 µM with OVCAR-4 ovarian; 0.28 µM with SK-MEL-5 melanoma; 0.709 µM in the assay with IGROV1 ovarian; 3.44 µM in the assay on K-562 leukemia; 1.48 µM in the assay on ACHN renal; 3.34 µM with HCT-15 colon. Also, the GI50 in the assay on CAKI-1 renal is 0.852 µM; in the assay with SNB-19 CNS, 0.326 µM; in the assay with KM12 colon, 0.28 µM; with CCRF-CEM leukemia, 0.183 µM. The TGI in the assay with OVCAR-4 ovarian is 29.7 µM; in the assay with SK-MEL-5 melanoma, 1.31 µM; with IGROV1 ovarian, greater than 85.6 µM; in the assay on K-562 leukemia, greater than 100 µM; with ACHN renal, 14.6 µM; with HCT-15 colon it was greater than 49.4 µM. Further, the TGI with CAKI-1 renal was 12.6 µM; with SNB-19 CNS it was 15.4 µM; in the assay on KM12 colon, 1.83 µM; in the assay on CCRF-CEM leukemia it was greater than 100 µM.

On to `CN(C)CC1CCCC(CN(C)C)C1=O` (stereo not drawn), for which the GI50 with OVCAR-4 ovarian was 1.89 µM and 7.01 µM; with K-562 leukemia, 0.119 µM and 0.677 µM; in the assay with HCT-15 colon, 1.28 µM and 8.54 µM; in the assay on CAKI-1 renal, 1.39 µM and 0.259 µM; in the assay on KM12 colon it was 6.05 µM and 17.2 µM; in the assay on CCRF-CEM leukemia, 0.155 µM and 0.0588 µM. The TGI with OVCAR-4 ovarian is 3.51 µM and 18.5 µM; in the assay with SK-MEL-5 melanoma it was 21 µM and 30.3 µM; in the assay with IGROV1 ovarian, 37.2 µM and 38.4 µM; in the assay with K-562 leukemia it was 0.601 µM; in the assay on ACHN renal it was 2.92 µM and 3.52 µM; in the assay on CAKI-1 renal it was 3.12 µM and 0.858 µM. Besides, the TGI was 68 µM and > 65.4 µM in the assay with SNB-19 CNS; 16.9 µM and 33.3 µM in the assay on KM12 colon; 0.559 µM and 0.21 µM with CCRF-CEM leukemia.

`CCN=C(N)CSS(=O)(=O)O`: the TGI in the assay on OVCAR-4 ovarian, in the assay with SK-MEL-5 melanoma, with IGROV1 ovarian, in the assay on K-562 leukemia, in the assay on ACHN renal and with HCT-15 colon was greater than 100 µM each time. In addition, the TGI in the assay on CAKI-1 renal, with SNB-19 CNS, with KM12 colon and in the assay on CCRF-CEM leukemia was greater than 100 µM each time.

Turning to `O=C(/C=C/c1cccnc1)/C=C/c1cccnc1`, the GI50 with OVCAR-4 ovarian is 2 µM; in the assay with SK-MEL-5 melanoma, 2.06 µM; with IGROV1 ovarian, 0.463 µM; with K-562 leukemia, 0.383 µM; in the assay on ACHN renal, 2.19 µM; in the assay on HCT-15 colon it was 0.523 µM. In addition, the GI50 with CAKI-1 renal is 4.28 µM; in the assay with SNB-19 CNS it was 3.64 µM; in the assay on KM12 colon, 0.428 µM; with CCRF-CEM leukemia, 0.199 µM. In addition, the TGI worked out at 4.52 µM in the assay on OVCAR-4 ovarian; 4.7 µM in the assay with SK-MEL-5 melanoma; 1.82 µM in the assay with IGROV1 ovarian; 5.48 µM with ACHN renal; 1.98 µM with HCT-15 colon; 26.6 µM with CAKI-1 renal. Besides, the figures for the TGI in the assay on SNB-19 CNS, with KM12 colon and with CCRF-CEM leukemia were 11.6 µM, 1.58 µM and 0.821 µM, respectively.

With `COc1cc(-c2cn(-c3ccc(Cl)cc3)c(=O)n2-c2ccccc2)cc(OC)c1OC`, the GI50 in the assay on OVCAR-4 ovarian is 21.4 µM; in the assay on SK-MEL-5 melanoma it was 25.3 µM; in the assay with IGROV1 ovarian it was 30.6 µM; in the assay on K-562 leukemia, greater than 100 µM; in the assay on ACHN renal, 34.8 µM; in the assay on HCT-15 colon, greater than 100 µM. Moreover, the GI50 is greater than 100 µM in the assay with CAKI-1 renal, 44.7 µM in the assay on SNB-19 CNS, greater than 69.9 µM with KM12 colon and greater than 100 µM with CCRF-CEM leukemia. Moreover, the TGI with OVCAR-4 ovarian was greater than 90.7 µM; in the assay with SK-MEL-5 melanoma, greater than 100 µM; in the assay with IGROV1 ovarian, greater than 69.2 µM; with K-562 leukemia it was greater than 100 µM; in the assay on ACHN renal, greater than 100 µM; with HCT-15 colon, greater than 100 µM. The TGI with CAKI-1 renal, in the assay with SNB-19 CNS, in the assay on KM12 colon and in the assay on CCRF-CEM leukemia was greater than 100 µM in each case.

`CCN1C(=O)N(CC)C2C1NN=c1s/c(=C\c3ccc([N+](=O)[O-])cc3)c(=O)n12` (stereo not drawn): the GI50 was 0.744 µM with OVCAR-4 ovarian; 0.343 µM with SK-MEL-5 melanoma; 0.977 µM in the assay on IGROV1 ovarian; 0.35 µM in the assay with K-562 leukemia; 0.587 µM with ACHN renal; 0.394 µM in the assay with HCT-15 colon. Moreover, the GI50 with CAKI-1 renal was 0.395 µM; with SNB-19 CNS, 0.683 µM; in the assay with KM12 colon, 0.342 µM; in the assay on CCRF-CEM leukemia, 0.411 µM. Besides, the TGI in the assay on OVCAR-4 ovarian was 10.5 µM; in the assay on SK-MEL-5 melanoma, 12.1 µM; with IGROV1 ovarian, greater than 32.9 µM; in the assay on K-562 leukemia it was greater than 100 µM; in the assay on ACHN renal, greater than 100 µM; in the assay with HCT-15 colon, greater than 100 µM. The TGI is greater than 46.4 µM in the assay with CAKI-1 renal, greater than 84.3 µM in the assay on SNB-19 CNS, greater than 100 µM with KM12 colon and greater than 46.7 µM in the assay on CCRF-CEM leukemia.
